Results: patent US8785630B2, “Insecticidal triazines and pyrimidines” (Vestaron Corporation, priority 2011, dated 2014)

Test system: beet armyworm (Spodoptera exigua)
Test: Insecticidal test for beet armyworm, treated diet surface
Assay type: in vivo
Conditions: 100 μg/cm^2 on diet surface, first instar larvae, 32 insects per treatment, observations 24, 48 and 96 hours
Protocol: The compounds identified in Table 8 were prepared according to the previous methods and were tested against beet armyworm and corn earworm as follows:
Insecticidal Test for Beet Armyworm (Spodoptera exigua).
To prepare the test solution, the test compound was Formulated at 3499 ppm in solution as 5 mg compound/1.429 mL of 9 parts acetone: 1 part deionized H2O and vortexed to homogenize. 50 μL of the 3499 ppm (equivalent to 100 μg/cm^2 dose on diet surface area) test solution was pipetted upon the surface of 1 mL of solidified cool Southland Products Incorporated Beet Armyworm Diet (201 Stuart Island Road Lake Village, Ark. 71653) using an Eppendorf Repeater Plus with a 1 mL pipette tip. All pipetting of treatments was done in a Labconco Hood. Thirty minutes were allowed for the acetone to evaporate leaving a dose of 100 μg/cm^2 on the surface of the artificial diet. Two 24 hour old first instar Beet Armyworm (Spodoptera Exigua) larvae were placed in each well of the 128 well Bio-BA 128 Bioassay trays (CD International, Pitman, N.J., 08071, USA) using a #0 fine camel hair paint brush. Bioassay trays were sectioned into treatment groups of 8 with 16 replicates per treatment group (32 insects per treatment). Trays containing the treated diet and larvae were covered with a Bio-CV-16 cover (CD International, Pitman, N.J., 08071, USA) and then placed on a rack under florescent lights at 27° C., 20% relative humidity (RH) in the room, and 16 hr light: 8 hr dark for 96 hours. Observations were made 24, 48 and 96 hours after treatment and infestation. The number of insects dead were counted out of the 32 insects total per treatment and the results are given in a table as a percent mortality at a dose of 100 μg/cm^2. When finished, the tray was moved to the −5° C. freezer and left for 24 hr to insure mortality of the remaining S. exigua. After 24 hours, dispose of entire tray into waste bin.
Keys to the table: Mortality refers to activity against beet army worm (Spodoptera exigua) as defined above at the concentration of 100 μg/cm^2 (A=76-100% mortality, B=51-75% mortality, C=26-50% mortality and D=0-25% mortality).

SMILES | mortality at 100 µg/cm2 [%]
Fc1cccc(Cl)c1-c1cc(Nc2ccc(Cl)nc2)nc(NN=Cc2ccc(OC(F)(F)F)cc2)n1 [Example 59, 6-(2-chloro-6-fluorophenyl)-N-(6-chloropyridin-3-yl)-2-(2-(4-(trifluoromethoxy)benzylidene)hydrazinyl)pyrimidin-4-amine] | 76 to 100
FC(F)(F)Oc1ccc(C=NNc2nc(NCc3ccc(Cl)cc3)cc(-c3ccccc3)n2)cc1 [Example 61, N-(4-chlorobenzyl)-6-phenyl-2-(2-(4-(trifluoromethoxy)benzylidene)hydrazinyl)pyrimidin-4-amine] | 76 to 100
Fc1cccc(Cl)c1-c1nc(NN=Cc2ccc(C(F)(F)F)cc2)nc(Nc2ccc(Cl)nc2)n1 [Example 51, 4-(2-chloro-6-fluorophenyl)-N-(6-chloropyridin-3-yl)-6-(2-(4-(trifluoromethyl)benzylidene)hydrazinyl)-1,3,5-triazin-2-amine] | 76 to 100
FC(F)(F)Oc1ccc(C=NNc2nc(Nc3ccc(Cl)cc3)nc(-c3c(Cl)cc(Cl)cc3Cl)n2)cc1 [Example 27, N-(4-chlorophenyl)-4-(2,4,6-trichlorophenyl)-6-(2-(4-(trifluoromethoxy)benzylidene)hydrazinyl)-1,3,5-triazin-2-amine] | 0 to 25
Fc1cccc(Cl)c1-c1nc(NN=Cc2ccc(OC(F)(F)F)cc2)nc(Nc2ccc(Cl)cc2)n1 [Example 4] | 76 to 100
Cc1ccc(C=NNc2nc(Nc3ccc(Cl)nc3)nc(-c3c(F)cccc3Cl)n2)cc1 [Example 53, 4-(2-chloro-6-fluorophenyl)-N-(6-chloropyridin-3-yl)-6-(2-(4-methylbenzylidene)hydrazinyl)-1,3,5-triazin-2-amine] | 76 to 100
